Assay: Plasma concentration (Cmax) of gabapentin in the rat

NCC1(CC(=O)O)CCCCC1 [gabapentin, 1-(aminomethyl)-cyclohexylacetic acid]
Cmax: 520 to 10500 ng/mL
